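1) Cells in 96-well plates. 2) Compound, 48 h, 5 concentrations. 3) Linear interpolation between surrounding doses. 4) Unreached endpoint = highest concentration. At the GI50, growth is halved.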 Calls of active or inactive are those of the source. Cut-off read from the data, not from the text of the source: active = GI50 up to about 1.1 µM and inactive = higher.
Columns and labels:
Assay in all cases: NCI-60 cell line screen, 48 h
NCI-H226 = test system: NCI-H226
SR = test system: SR
SF-539 = test system: SF-539
SW-620 = test system: SW-620
HT-29 = test system: HT-29
HCT-116 = test system: HCT-116
SNB-19 = test system: SNB-19
A549 = test system: A549
COLO 205 = test system: COLO 205
IGROV-1 = test system: IGROV-1
ACHN = test system: ACHN
K562 = test system: K562
NCI-H460 = test system: NCI-H460
SK-MEL-5 = test system: SK-MEL-5
NCI/ADR-RES = test system: NCI/ADR-RES
MOLT-4 = test system: MOLT-4
KM12 = test system: KM12
LOX IMVI = test system: LOX IMVI
UACC-62 = test system: UACC-62
EKVX = test system: EKVX

Measured: GI50

CC(C)(CCCCC(C)(C)NCC1COc2ccccc2O1)NCC1COc2ccccc2O1 (stereo not given)
inactive: NCI-H226 > 10 µM | SR > 10 µM | SF-539 1.85 µM | SW-620 9.75 µM | HT-29 2.47 µM | HCT-116 7.91 µM | SNB-19 > 10 µM | A549 > 10 µM | COLO 205 2.12 µM | IGROV-1 > 10 µM | ACHN > 10 µM | K562 > 10 µM | NCI-H460 > 10 µM | SK-MEL-5 1.6 µM | NCI/ADR-RES > 10 µM | MOLT-4 > 10 µM | KM12 > 10 µM | LOX IMVI 3.33 µM | UACC-62 3.43 µM | EKVX > 10 µM

C/C(=C\COP(=O)(O)OP(=O)(O)O)CC/C=C(\C)CNc1ccc([N+](=O)[O-])cc1
inactive: NCI-H226 > 100 µM | SR > 100 µM | SF-539 > 100 µM | SW-620 > 100 µM | HT-29 > 100 µM | HCT-116 > 100 µM | SNB-19 > 100 µM | A549 > 100 µM | COLO 205 > 100 µM | IGROV-1 > 100 µM | ACHN > 100 µM | K562 > 100 µM | NCI-H460 > 100 µM | SK-MEL-5 > 100 µM | NCI/ADR-RES > 100 µM | MOLT-4 > 100 µM | KM12 > 100 µM | LOX IMVI > 100 µM | UACC-62 > 100 µM | EKVX > 100 µM

COCn1cnc2c(=O)n(-c3ccc(C)cc3)c(=S)n(-c3ccc(C)cc3)c21
inactive: NCI-H226 > 100 µM | SR > 100 µM | SF-539 > 100 µM | SW-620 > 100 µM | HT-29 > 100 µM | HCT-116 > 100 µM | SNB-19 > 100 µM | A549 > 100 µM | COLO 205 > 100 µM | IGROV-1 > 100 µM | ACHN > 100 µM | K562 > 100 µM | NCI-H460 > 100 µM | SK-MEL-5 > 100 µM | NCI/ADR-RES > 100 µM | MOLT-4 > 100 µM | KM12 > 100 µM | LOX IMVI > 100 µM | UACC-62 > 100 µM | EKVX > 100 µM

O=C1CSCC(=O)Nc2ccccc2N1
inactive: NCI-H226 > 100 µM | SR > 100 µM | SF-539 > 100 µM | SW-620 > 100 µM | HT-29 > 100 µM | HCT-116 > 100 µM | SNB-19 > 100 µM | A549 > 100 µM | COLO 205 > 100 µM | IGROV-1 > 100 µM | ACHN > 100 µM | K562 > 100 µM | NCI-H460 > 100 µM | SK-MEL-5 > 100 µM | NCI/ADR-RES > 100 µM | MOLT-4 > 100 µM | KM12 > 100 µM | LOX IMVI > 100 µM | UACC-62 > 100 µM | EKVX > 100 µM

CSc1c(C#N)c(N)nc2c(/N=N\c3ccc(Br)cc3)c(N)nn12
inactive: NCI-H226 21.5 µM | SR 2.55 µM | SF-539 9.18 µM | SW-620 5.64 µM | HT-29 9.53 µM | HCT-116 6.34 µM | SNB-19 28.4 µM | A549 8.99 µM | COLO 205 10 µM | IGROV-1 3.01 µM | ACHN 7 µM | K562 2.75 µM | NCI-H460 12.8 µM | SK-MEL-5 18.1 µM | NCI/ADR-RES 17.7 µM | MOLT-4 3.63 µM | KM12 9.02 µM | LOX IMVI 1.96 µM | UACC-62 7.26 µM | EKVX 7.78 µM

COc1ccc2c(c1)nc1n2C(c2c(F)cccc2F)SC1 (stereo not given)
inactive: NCI-H226 62.7 µM | SR 13.5 µM | SF-539 47.3 µM | SW-620 60.5 µM | HT-29 47.3 µM | HCT-116 31.5 µM | SNB-19 21.4 µM | A549 34.8 µM | COLO 205 40.6 µM | IGROV-1 47.5 µM | ACHN > 100 µM | K562 43.8 µM | NCI-H460 39.4 µM | SK-MEL-5 24.2 µM | NCI/ADR-RES 38.2 µM | MOLT-4 35.2 µM | KM12 25 µM | LOX IMVI 45.6 µM | UACC-62 29.1 µM | EKVX 36.1 µM

O=C1CCCC1C(O)(C(F)(F)F)C(F)(F)F (stereo not given)
inactive: NCI-H226 > 100 µM | SR > 100 µM | SF-539 > 100 µM | SW-620 > 100 µM | HT-29 > 100 µM | HCT-116 > 100 µM | SNB-19 > 100 µM | A549 > 100 µM | COLO 205 > 100 µM | IGROV-1 > 100 µM | ACHN > 100 µM | K562 > 100 µM | NCI-H460 > 100 µM | SK-MEL-5 > 100 µM | NCI/ADR-RES > 100 µM | MOLT-4 > 100 µM | KM12 > 100 µM | LOX IMVI > 100 µM | UACC-62 > 100 µM | EKVX > 100 µM

Reference: ChEMBL document CHEMBL1201862, “PubChem BioAssay data set” (2004)
